Measured values from patent US20240034733A1, “KRAS G12D INHIBITORS” (Mirati Therapeutics, Inc., priority 2020, published 2024).

Legend:
[1] = molecular target: T1, GDP-loaded recombinant human KRAS G12D (Homo sapiens, UniProt P01116, G12D); test: KRas G12D Binding Assay (TR-FRET displacement of Cy5 labelled tracer); conditions: 60 minute incubation at 22° C.
T1 construct: corresponding to amino acids 1:169, produced at Array BioPharma; biotin (biotinylated); made in house
Method: This Example illustrates that exemplary compounds of the present invention bind to KRas G12D and are capable of displacing a labeled tracer ligand occupying the KRas G12D binding site.
The ability of a compound to bind to KRAS G12D was measured using a TR-FRET displacement assay. Biotinylated GDP-loaded recombinant human KRAS G12D (corresponding to amino acids 1:169, produced at Array BioPharma) was incubated with a custom-made Cy5 labelled tracer, europium labelled streptavidin and compound (2% DMSO final) in buffer (50 mM HEPES [pH 7.5], 5 mM MgCl2, 0.005% Tween-20 & 1 mM DTT). After a 60 minute incubation at 22° C., the reaction was measured using a PerkinElmer EnVision multimode plate reader via TR-FRET dual wavelength detection, and the percent of control (POC) calculated using a ratiometric emission factor. […] The POC values were fit to a 4-parameter logistic curve and the IC50 value was determined as the concentration where the curve crosses 50 POC.

[2] = system: KRas G12D-mediated phosphorylation of ERK; test: Inhibition of KRas G12D-mediated phosphorylation of ERK in AGS cells; assay type: cell-based; conditions: Homo sapiens; AGS cells expressing G12D, 3 hours, phospho-ERK normalized to GAPDH
Method: AGS cells (ATCC CRL-1739) expressing G12D were grown in DMEM medium supplemented with 10% fetal bovine serum, 10 mM HEPES, and Penicillin/Streptomycin. Cells were plated in tissue culture treated 96 well plates at a density of 40,000 cells/well and allowed to attach for 12-14 hours. Diluted compounds were then added in a final concentration of 0.5% DMSO. After 3 hours, the medium was removed, 150 μl of 4.0% formaldehyde was added and the plates incubated at room temperature for 20 minutes. The plates were washed with PBS, and permeabilized with 150p of ice cold 100% methanol for 10 minutes. Non-specific antibody binding to the plates was blocked using 100 μL Licor blocking buffer (Li-Cor Biotechnology, Lincoln NE) for 1 hour at room temperature.
The amount of phosho-ERK was determined using an antibody specific for the phosphorylated form of ERK and compared to the amount of GAPDH. Primary antibodies used for the detection were added as follows: Phospho-ERK (Cell Signaling cs-9101) diluted 1:500 and GAPDH (Millipore MAB374) diluted 1:5000 in Licor block+0.05% Tween 20. The plates were incubated for 2 hours at room temperature. The plates were washed with PBS+0.05% Tween 20.
Secondary antibodies used to visualize primary antibodies were added as follows: Anti-rabbit-680 diluted 1:1000 and Anti-mouse-800 diluted 1:1000 both in Licor block+0.05% Tween20, and were incubated for 1 hour at room temperature. The plates were washed with PBS +0.05% Tween 20. A 100 μl aliquot of PBS was added to each well and the plates were read on a Li-Cor Odyssey CLX plate reader phospho-ERK (Thr202/Tyr204) signal was normalized to the GAPDH signal for each well and percent of DMSO control values were calculated. IC50 values were generated using a 4-parameter fit of the dose response curve

T1 sequence (P01116 1-169 isoform P01116-2 G12D): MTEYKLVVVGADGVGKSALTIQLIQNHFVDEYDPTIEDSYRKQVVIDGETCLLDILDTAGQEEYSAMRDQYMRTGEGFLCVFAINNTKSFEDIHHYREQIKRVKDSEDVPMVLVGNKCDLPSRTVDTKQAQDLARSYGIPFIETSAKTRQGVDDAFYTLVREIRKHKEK

Compound	IC50 [1] [nM]	IC50 [2] [nM]
Oc1cc(-c2ccc3c(N4CC5CCC(C4)N5)nc(OCC45CCCN4C[C@H](F)C5)nc3c2F)c2c(Cl)cccc2c1 (mixture of isomers) [Example 5, 4-(4-((1R,5S)-3,8-diazabicyclo[3.2.1]octan-3-yl)-8-fluoro-2-(((2R,7aS)-2-fluorotetrahydro-1H-pyrrolizin-7a(5H)-yl)methoxy)quinazolin-7-yl)-5-chloronaphthalen-2-ol]	1.4	42
Oc1cccc(F)c1-c1c(Cl)cc2c(N3CC4CCC(C3)N4)nc(OCC34CCCN3C[C@H](F)C4)nc2c1F (mixture of isomers) [Example 6, 2-(4-((1R,5S)-3,8-diazabicyclo[3.2.1]octan-3-yl)-6-chloro-8-fluoro-2-(((2R,7aS)-2-fluorotetrahydro-1H-pyrrolizin-7a(5H)-yl)methoxy)quinazolin-7-yl)-3-fluorophenol]	3.5	1800
N#Cc1ccccc1Oc1cc2c(N3CC4CCC(C3)N4)nc(OCC34CCCN3C[C@H](F)C4)nc2cc1-c1cc(O)cc2ccccc12 (mixture of isomers) [Example 22, 2-((4-((1R,5R)-3,8-diazabicyclo[3.2.1]octan-3-yl)-2-(((2R,7aS)-2-fluorotetrahydro-1H-pyrrolizin-7a(5H)-yl)methoxy)-7-(3-hydroxynaphthalen-1-yl)quinazolin-6-yl)oxy)benzonitrile]	1.7	140
N#Cc1ccccc1Oc1cc2c(N3CC4CCC(C3)N4)nc(OCC34CCCN3C[C@H](F)C4)nc2c(F)c1-c1cc(O)cc2ccccc12 (mixture of isomers) [Example 27, 2-((4-((1R,5S)-3,8-diazabicyclo[3.2.1]octan-3-yl)-8-fluoro-2-(((2R,7aS)-2-fluorotetrahydro-1H-pyrrolizin-7a(5H)-yl)methoxy)-7-(3-hydroxynaphthalen-1-yl)quinazolin-6-yl)oxy)benzonitrile]	3.6	44
Oc1cc(-c2ccc3c(N4CC5CCC(C4)N5)nc(OCC45CCCN4C[C@H](F)C5)nc3c2F)c2ccccc2c1 (mixture of isomers) [Example 28, 4-(4-((1R,5S)-3,8-diazabicyclo[3.2.1]octan-3-yl)-8-fluoro-2-(((2R,7aS)-2-fluorotetrahydro-1H-pyrrolizin-7a(5H)-yl)methoxy)quinazolin-7-yl)naphthalen-2-ol]	0.6	171
CN1CCC[C@H]1COc1nc(N2CC3CCC(C2)N3)c2cc(Oc3cccnc3)c(-c3cc(O)cc4ccccc34)cc2n1 [Example 1]	7	8390
Oc1cc(-c2ccc3c(N4C[C@H]5CC[C@@H](C4)N5)nc(OCC45CCCN4CCC5)nc3c2F)c2ccccc2c1 [Example 3, 4-(4-((1R,5S)-3,8-diazabicyclo[3.2.1]octan-3-yl)-8-fluoro-2-((tetrahydro-1H-pyrrolizin-7a(5H)-yl)methoxy)quinazolin-7-yl)naphthalen-2-ol]	0.5	95
Oc1cc(-c2ccc3c(N4C[C@H]5CC[C@@H](C4)N5)nc(OCC45CCCN4CCC5)nc3c2F)c2c(Cl)cccc2c1 [Example 4, 4-(4-((1R,5S)-3,8-diazabicyclo[3.2.1]octan-3-yl)-8-fluoro-2-((tetrahydro-1H-pyrrolizin-7a(5H)-yl)methoxy)quinazolin-7-yl)-5-chloronaphthalen-2-ol]	0.7	21
CN1CCC[C@H]1COc1nc(N2CCN(CCCl)CC2)c2ccc(-c3cc(O)cc4ccccc34)c(F)c2n1 [Example 9, (S)-4-(4-(4-(2-chloroethyl)piperazin-1-yl)-8-fluoro-2-((1-methylpyrrolidin-2-yl)methoxy)quinazolin-7-yl)naphthalen-2-ol]	187	6790
COc1ccc(F)c(Oc2cc3c(N4C[C@H]5CC[C@@H](C4)N5)nc(OC[C@@H]4CCCN4C)nc3cc2-c2cc(O)cc3ccccc23)c1 [Example 17, 4-(4-((1R,5S)-3,8-diazabicyclo[3.2.1]octan-3-yl)-6-(2-fluoro-5-methoxyphenoxy)-2-(((S)-1-methylpyrrolidin-2-yl)methoxy)quinazolin-7-yl)naphthalen-2-ol bis(2,2,2-trifluoroacetate)]	8	5560
